Entries after “also recorded” stand apart in the source; their conditions may differ.
Key:
STING signaling [1] = assay: IFNβ ELISA in MEF cells after ISD treatment; format: cell-based, murine
Experimental: (§1) Example 9: Interferon β Elisa analysis: Interferon β Elisa was performed using either the IFNβ human ELISA Kit from Invitrogen or the Human IFNβ ELISA Kit from PBL Interferon Source following the manufacturer's protocol.

STING signaling [2] = assay: IFNβ ELISA in normal hTERT cells after ISD transfection; format: cell-based, human
Experimental: as §1

STING signaling [3] = assay: Western blot of STING, TBK1 and IRF3 phosphorylation in MEF cells; format: cell-based, murine; settings: cytosolic DNA
Experimental: Example 8: Immunoblot analysis: Equal amounts of proteins were resolved on sodium dodecyl sulfate (SDS)-Polyacrylamide gels and then transferred to polyvinylidene fluoride (PVDF) membranes (Millipore). After blocking with 5% Blocking Reagent, membranes were incubated with various primary antibodies (and appropriate secondary antibodies). The image was resolved using an enhanced chemiluminescence system ECL (Thermo Scientific) and detected by autoradiography (Kodak). Antibodies: rabbit polyclonal antibody against STING was developed in our laboratory as described previously in Ishikawa et al, 2008; other antibodies were obtained from following sources: β-actin (Sigma Aldrich), p-IRF3 (Cell Signaling), IRF3 (Santa Cruz Biotechnology), p-p65 (Cell Signaling), p65 (Cell Signaling), p-TBK1 (Cell Signaling), TBK1 (Abcam), cGAS (Cell Signaling).

[4] = test system: TREX1-deficient macrophages; assay: qPCR of Cxcl10 in TREX1 knockout (TKO) bone marrow derived macrophages; format: cell-based, mouse; settings: TKO BMDM, compared to DMSO control
Experimental: MEFs were obtained from E13.5 embryos by a standard procedure. Bone Marrow Derived Macro-phages (BMDM) were isolated from hind-limb femurs of 8-10 weeks old WT and Trex1 KO (TKO) mice. The hematopoietic cells from the bone marrow were cultured in complete DMEM (Invitrogen) including 10 ng/ml of Mouse Recombinant Colony-Stimulating Factor (M-CSF, R&D Systems) for 10 to 14 days.
Example 11: qPCR total RNA were reverse-transcribed using M-MLV Reverse Transcriptase (Promega). Real-time PCR was performed using Taqman Gene Expression Assay (Applied Biosystems) for innate immune genes and inflammatory cytokines.

[5] = target: T1, human STING CBD-CTT (152-379) (STING152-379H) (Homo sapiens, UniProt Q86WV6); assay: Thermal shift assay (TSA) for binding to purified STING; settings: purified STING152-379H
T1 construct: Fraction containing the 237 amino acid (27 kDA) STING protein; made in house; host or cells: E. coli BL21 DE3 RIPL Codon Plus
Excerpt: Purified STING protein was used as bait to identify binding compounds, using a thermal shift assay (TSA). A library containing 250,000 compounds (Enamine, Monmouth Jct., NJ) was surveyed. Compounds that bound to STING were then examined for their ability to inhibit STING signaling, see Examples 1-4 vide infra. In the presence of cytosolic DNA species, STING becomes activated to drive the transcription of cytokines such as type I IFN. Compounds binding to STING via TSA were subsequently examined for their ability prevent cytosolic DNA species from activating the type I interferon (IFN) promoter, using a live cell assay. This assay comprised immortalized human fibroblasts (hTERT) that were stably transfected with the type I IFN promoter driving luciferase as well as the CMV promoter driving SEAP (hTERT-pIFNβ-Glu). The ability of the small molecules to prevent activation of the type I IFN promoter and the transcription of luciferase, but not SEAP in response to cytosolic DNA species can be assessed. The activation of STING, typically by CDNs, in turn activates the transcription factors NF-κB and IRF3, both of which are required to induce the transcriptional stimulation of the Type I IFN promoter, but not the CMV promoter (IRF3 and NF-kB transcription factor binding sites are not contained in the CMV promoter). […]

T1 sequence (Q86WV6 with tags, fused parts or gaps): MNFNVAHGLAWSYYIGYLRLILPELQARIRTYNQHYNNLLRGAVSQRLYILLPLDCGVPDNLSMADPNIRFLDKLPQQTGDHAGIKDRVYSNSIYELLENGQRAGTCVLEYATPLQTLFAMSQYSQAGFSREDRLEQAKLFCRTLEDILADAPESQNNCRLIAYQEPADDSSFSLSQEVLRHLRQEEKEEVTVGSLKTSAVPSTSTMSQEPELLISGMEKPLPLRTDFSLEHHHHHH

N#Cc1c(NC(=O)c2ccccc2Cl)n(Cc2ccccc2)c2nc3ccccc3nc12 [Compound Y1, N-{1-benzyl-3-cyano-1H-pyrrolo[2,3-ß]quinoxalin-2-yl}-2-chlorobenzamide] was tested, and the “IFNβ production (ELISA)” value (STING signaling [1]) was “reproducibly decreased the production of IFNβ; also recorded: dramatically decreased”, the “IFNβ production (ELISA)” value (STING signaling [2]) was “dramatically decreased IFNβ expression and production” and the “phosphorylation of TBK1, IRF3 and STING (Western blot)” value (STING signaling [3]) was “prevented the phosphorylation of either TBK1 or IRF3”. The “Cxcl10 expression / cytokine production in TREX1-deficient macrophages (qPCR)” value [4] was “can repress cytokine production in TREX1-defective cells; also recorded: dramatically decreased; also recorded: inhibits TREX1 dependent Cxcl10 expression” and the “binding to STING (TSA)” value [5] was “binds to and stabilizes STING; also recorded: can bind to STING”.

— patent US12410174B1, “Small molecular inhibitors of sting signaling compositions and methods of use” (TYERELL IMMUNOTHERAPEUTICS INC, priority 2020, dated 2025)
